Assay results from US12208092B2, “Compositions and methods for administering paltusotine to patients with hepatic impairment” (CRINETICS PHARMACEUTICALS, INC., priority 2023, dated 2025).

System: plasma GH
Assay: suppression of plasma GH after rGHRH challenge in rat
Format: in vivo
Conditions: rat studies (GH and IGF-1 suppression)
Experimental: The in vivo pharmacological efficacy of paltusotine has been examined in rat and dog. In the rat, acute efficacy was evaluated by examining the suppression of plasma GH in response to a challenge with rat growth hormone releasing hormone (rGHRH). […] The effects of chronic, oral, 14-day administration of paltusotine were evaluated by measuring the sustained suppression of IGF-1 in the rat.

C[C@@H](O)[C@@H]1NC(=O)[C@H](CCCCN)NC(=O)[C@@H](Cc2c[nH]c3ccccc23)NC(=O)[C@H](Cc2ccccc2)NC(=O)[C@@H](NC(=O)[C@H](N)Cc2ccccc2)CSSC[C@@H](C(=O)N[C@H](CO)[C@@H](C)O)NC1=O [Octreotide, reference compound]
maximal effects as positive control: maximal effects similar to orally administered paltusotine
